From PubChem BioAssay (NCI) come the findings set out here.

Some test systems named below: SK-MEL-5 melanoma; UO-31 renal; HS 578T breast; HOP-62 NSCLC; SK-MEL-2 melanoma; MCF7 breast; NCI-H23 lung; SN12C renal; 786-0 renal; SW-620 colon; RXF 393 renal; EKVX NSCLC; ACHN renal; HCT-116 colon; SNB-19 CNS; OVCAR-8 ovarian; HT29 colon; LOX IMVI melanoma; SK-MEL-28 melanoma.
Holding throughout (test): DTP human tumour cell line panel, 48 h

Several values for one entry are separate records, joined by “and”; a condition that tells them apart may be missing. Equal entries are not always repeated.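 All cell lines were grown in 96-well plates and treated with compound for 48 hours. TGI is the concentration that stops growth completely.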 Some results are limits rather than exact numbers.

Broadly, the TGI is the concentration giving total growth inhibition. Higher therefore signals less potent growth arrest.

With `Nc1nc(N)c(NC(=O)CCCO)c(=O)[nH]1`, the TGI in the test with SK-MEL-5 melanoma, in the test on UO-31 renal, with HS 578T breast, in the test with HOP-62 NSCLC, with SK-MEL-2 melanoma and in the test on MCF7 breast was more than 100 µM each time. In addition, the TGI in the test with NCI-H23 lung, with SN12C renal, in the test on 786-0 renal, in the test with SW-620 colon, in the test on RXF 393 renal and in the test with EKVX NSCLC was more than 100 µM in each case. Besides, the TGI in the test on ACHN renal, in the test with HCT-116 colon, in the test with SNB-19 CNS, in the test with OVCAR-8 ovarian, in the test with HT29 colon and in the test with LOX IMVI melanoma was more than 100 µM in each case.

On to `O=C(CC(C(=O)c1cccs1)c1ccsc1)c1cccs1` (stereo unspecified), for which the TGI in the test on SK-MEL-5 melanoma, in the test on UO-31 renal, with HS 578T breast, with HOP-62 NSCLC, in the test with MCF7 breast and in the test with NCI-H23 lung was more than 100 µM each time. The TGI with SN12C renal was more than 100 µM; with 786-0 renal it was more than 100 µM; in the test with SW-620 colon, more than 100 µM; in the test with RXF 393 renal, more than 100 µM; in the test on EKVX NSCLC, 76.8 µM; with ACHN renal it was more than 100 µM. For the same compound, the TGI in the test on SK-MEL-28 melanoma, in the test on HCT-116 colon, with SNB-19 CNS, in the test on OVCAR-8 ovarian and with HT29 colon was more than 100 µM each time.

As for `Cc1ccc2ccccc2c1NC1=NCCO1`, the TGI in the test on SK-MEL-5 melanoma, with UO-31 renal, in the test on HS 578T breast, in the test on HOP-62 NSCLC, in the test on MCF7 breast and with NCI-H23 lung was more than 100 µM each time. The TGI in the test on SN12C renal, in the test on 786-0 renal, in the test with SW-620 colon, in the test with RXF 393 renal, in the test on EKVX NSCLC and with ACHN renal was more than 100 µM throughout. Further, the TGI in the test on SK-MEL-28 melanoma, with HCT-116 colon, with SNB-19 CNS, in the test on OVCAR-8 ovarian and with HT29 colon was more than 100 µM throughout.

Turning to `CCOC(=O)C(/C=N\C(=S)Nc1ccc(Cl)c(Cl)c1)=C(/O)c1ccccc1`, the TGI in the test on SK-MEL-5 melanoma is more than 100 µM; in the test on UO-31 renal it was 16.6 µM; in the test on HS 578T breast, 10.5 µM; in the test with HOP-62 NSCLC it was more than 100 µM; in the test with SK-MEL-2 melanoma, 77.1 µM; in the test on MCF7 breast, more than 100 µM. In addition, the TGI in the test with NCI-H23 lung, with SN12C renal, in the test on 786-0 renal, in the test on SW-620 colon, in the test on RXF 393 renal and with EKVX NSCLC was more than 100 µM each time. Further, the TGI in the test on ACHN renal, in the test on SK-MEL-28 melanoma, with HCT-116 colon, with OVCAR-8 ovarian, in the test with HT29 colon and with LOX IMVI melanoma was more than 100 µM in each case.

`CCCCc1c2c(nc3c1CCCC3O)CCCC2` (stereo unspecified): the TGI with SK-MEL-5 melanoma, with UO-31 renal, in the test with HS 578T breast, in the test on HOP-62 NSCLC, with SK-MEL-2 melanoma and with MCF7 breast was more than 100 µM throughout. Further, the TGI in the test on NCI-H23 lung, in the test with SN12C renal, with 786-0 renal, in the test on SW-620 colon, with RXF 393 renal and with EKVX NSCLC was more than 100 µM in each case. Further, the TGI in the test on ACHN renal, in the test with HCT-116 colon, with SNB-19 CNS, in the test on OVCAR-8 ovarian and with HT29 colon was more than 100 µM throughout.

Turning to `CC(C)(C)OC(=O)c1cnc(Cl)cn1`, the TGI with SK-MEL-5 melanoma is more than 100 µM; in the test with UO-31 renal, 18.5 µM; in the test with HS 578T breast, more than 100 µM; in the test on HOP-62 NSCLC, more than 100 µM; in the test with SK-MEL-2 melanoma it was 80.6 µM; in the test on MCF7 breast, more than 100 µM. Also, the TGI was 55.4 µM with NCI-H23 lung; more than 100 µM in the test on SN12C renal; more than 100 µM with 786-0 renal; more than 100 µM in the test with SW-620 colon; 64.3 µM with EKVX NSCLC; 99.6 µM in the test on ACHN renal. For the same compound, the TGI with SK-MEL-28 melanoma is more than 100 µM; in the test on HCT-116 colon, more than 100 µM; in the test on SNB-19 CNS, more than 100 µM; with OVCAR-8 ovarian, more than 100 µM; in the test on HT29 colon it was more than 100 µM; in the test on LOX IMVI melanoma it was 62.9 µM.

For `CC(=O)OCC(OC(C)=O)C(OC(C)=O)C(OC(C)=O)C(C=NN(C(C)=O)S(=O)(=O)c1ccc(/C=C2\NC(=O)N(C)C2=O)cc1)OC(C)=O` (stereo unspecified), the TGI with SK-MEL-5 melanoma is 90.3 µM and 86.2 µM; in the test with UO-31 renal, more than 100 µM; in the test with HS 578T breast, more than 100 µM; in the test with HOP-62 NSCLC, more than 100 µM; in the test with SK-MEL-2 melanoma, 58 µM and > 100 µM; with MCF7 breast, more than 100 µM. Further, the TGI was more than 100 µM in the test on NCI-H23 lung; more than 100 µM in the test on SN12C renal; 80 µM and 68.9 µM with 786-0 renal; 83.7 µM and 97.7 µM in the test with SW-620 colon; 34.4 µM and 52.1 µM in the test on RXF 393 renal; 78.5 µM and > 100 µM in the test with EKVX NSCLC. Moreover, the TGI in the test on ACHN renal is more than 100 µM; in the test with HCT-116 colon it was 47.2 µM and 37.4 µM; in the test on SNB-19 CNS, more than 100 µM; with OVCAR-8 ovarian, > 100 µM and 86.7 µM; with HT29 colon, more than 100 µM; in the test on LOX IMVI melanoma, 33 µM and 66 µM.

Turning to `COc1ccc(-c2c(=O)[nH]n3c(=S)nc(-c4ccccc4)[nH]c23)cc1OC`, the TGI was 30.1 µM in the test on SK-MEL-5 melanoma; 33.8 µM in the test on UO-31 renal; more than 100 µM in the test on HS 578T breast; 84.9 µM in the test on HOP-62 NSCLC; 36.9 µM in the test on MCF7 breast; 58.3 µM in the test with NCI-H23 lung. For the same compound, the TGI in the test on SN12C renal is 37.3 µM; in the test with 786-0 renal, 33.9 µM; with SW-620 colon, 83.8 µM; in the test with RXF 393 renal, 32.4 µM; in the test on EKVX NSCLC it was 60.8 µM; with ACHN renal it was 51.1 µM. Moreover, the TGI in the test with SK-MEL-28 melanoma is 54.7 µM; in the test with HCT-116 colon, 31.4 µM; with SNB-19 CNS, 28.5 µM; in the test on OVCAR-8 ovarian it was 50.4 µM; in the test with HT29 colon, 48.8 µM; in the test with LOX IMVI melanoma it was 37 µM.
